Measured values published in patent publication US5654411A, “Process for preparing 4-deoxyerythromycin derivatives” (Abbott Laboratories, priority 1995, dated 1997).
Converted amounts (≈) assume the structure as drawn.

Legend:
[1] = test system: Enterobacter aerogenes ATCC 13048; test: Antibacterial activity (MIC), agar dilution method; format: cell-based; settings: unit assumed
Description: (§1) Compounds of the invention were next tested for antibacterial potency, such activity being regarded as an undesirable side effect if prokinetic therapy. Assays were conducted using methodology well-known in the art (the agar dilution method).

[2] = test system: Streptococcus pyogenes 2548 INDUC; test: Antibacterial activity (MIC), agar dilution method; format: cell-based; settings: unit assumed
Description: as §1

[3] = test system: Pseudomonas aeruginosa A5007; test: Antibacterial activity (MIC), agar dilution method; format: cell-based; settings: unit assumed
Description: as §1

[4] = test system: Staphylococcus aureus 642A; test: Antibacterial activity (MIC), agar dilution method; format: cell-based; settings: unit assumed
Description: as §1

[5] = test system: Escherichia coli H560; test: Antibacterial activity (MIC), agar dilution method; format: cell-based; settings: unit assumed
Description: as §1

[6] = test system: Streptococcus agalactiae CMX 508; test: Antibacterial activity (MIC), agar dilution method; format: cell-based; settings: unit assumed
Description: as §1

[7] = test system: Micrococcus luteus ATCC 4698; test: Antibacterial activity (MIC), agar dilution method; format: cell-based; settings: unit assumed
Description: as §1

[8] = test system: Staphylococcus aureus A5177; test: Antibacterial activity (MIC), agar dilution method; format: cell-based; settings: unit assumed
Description: as §1

[9] = test system: Streptococcus bovis A5169; test: Antibacterial activity (MIC), agar dilution method; format: cell-based; settings: unit assumed
Description: as §1

[10] = test system: Pseudomonas aeruginosa BMH10; test: Antibacterial activity (MIC), agar dilution method; format: cell-based; settings: unit assumed
Description: as §1

[11] = test system: Staphylococcus epidermidis 3519; test: Antibacterial activity (MIC), agar dilution method; format: cell-based; settings: unit assumed
Description: as §1

[12] = test system: Staphylococcus aureus ATCC 6538P; test: Antibacterial activity (MIC), agar dilution method; format: cell-based; settings: unit assumed
Description: as §1

[13] = test system: Pseudomonas aeruginosa K799/61; test: Antibacterial activity (MIC), agar dilution method; format: cell-based; settings: unit assumed
Description: as §1

[14] = test system: Staphylococcus aureus A-5278; test: Antibacterial activity (MIC), agar dilution method; format: cell-based; settings: unit assumed
Description: as §1

[15] = test system: Escherichia coli KNK 437; test: Antibacterial activity (MIC), agar dilution method; format: cell-based; settings: unit assumed
Description: as §1

[16] = test system: Pseudomonas aeruginosa DPHD-2862; test: Antibacterial activity (MIC), agar dilution method; format: cell-based; settings: unit assumed
Description: as §1

[17] = test system: Escherichia coli JUHL; test: Antibacterial activity (MIC), agar dilution method; format: cell-based; settings: unit assumed
Description: as §1

[18] = test system: Pseudomonas cepacia 2961; test: Antibacterial activity (MIC), agar dilution method; format: cell-based; settings: unit assumed
Description: as §1

[19] = test system: Staphylococcus aureus CMX 553; test: Antibacterial activity (MIC), agar dilution method; format: cell-based; settings: unit assumed
Description: as §1

[20] = test system: Pseudomonas aeruginosa K799/WT; test: Antibacterial activity (MIC), agar dilution method; format: cell-based; settings: unit assumed
Description: as §1

[21] = test system: Streptococcus pyogenes 930 CONST; test: Antibacterial activity (MIC), agar dilution method; format: cell-based; settings: unit assumed
Description: as §1

[22] = test system: Providencia stuartii CMX 640; test: Antibacterial activity (MIC), agar dilution method; format: cell-based; settings: unit assumed
Description: as §1

[23] = test system: Micrococcus luteus ATCC 9341; test: Antibacterial activity (MIC), agar dilution method; format: cell-based; settings: unit assumed
Description: as §1

[24] = test system: Acinetobacter calcoaceticus CMX 669; test: Antibacterial activity (MIC), agar dilution method; format: cell-based; settings: unit assumed
Description: as §1

[25] = test system: Streptococcus pyogenes EES61; test: Antibacterial activity (MIC), agar dilution method; format: cell-based; settings: unit assumed
Description: as §1

[26] = test system: Klebsiella pneumoniae ATCC 8045; test: Antibacterial activity (MIC), agar dilution method; format: cell-based; settings: unit assumed
Description: as §1

[27] = test system: Staphylococcus aureus 1775; test: Antibacterial activity (MIC), agar dilution method; format: cell-based; settings: unit assumed
Description: as §1

[28] = test system: Staphylococcus aureus NCTC 10649; test: Antibacterial activity (MIC), agar dilution method; format: cell-based; settings: unit assumed
Description: as §1

[29] = test system: Enterococcus faecium ATCC 8043; test: Antibacterial activity (MIC), agar dilution method; format: cell-based; settings: unit assumed
Description: as §1

[30] = test system: Pseudomonas aeruginosa DPHD-5263; test: Antibacterial activity (MIC), agar dilution method; format: cell-based; settings: unit assumed
Description: as §1

[31] = test system: Escherichia coli DC-2; test: Antibacterial activity (MIC), agar dilution method; format: cell-based; settings: unit assumed
Description: as §1

[32] = test system: Escherichia coli SS; test: Antibacterial activity (MIC), agar dilution method; format: cell-based; settings: unit assumed
Description: as §1

[33] = test system: smooth muscle strips isolated from rabbit small intestine; test: Induction of in vitro rabbit duodenal smooth muscle contraction; settings: for Relative Potency: relative to erythromycin A = 1.0; for EC50: Oryctolagus cuniculus, rabbit duodenum longitudinal muscle, 37° C., pH 7.5, read-out: pED50 (negative logarithm of the concentration producing half of the maximal contraction) (converted)
Description: The compounds of the present invention were tested in vitro for their ability to induce contraction of smooth muscle strips isolated from rabbit small intestine using the following procedure:
Rabbits were sacrificed and 15 cm of duodenum was rapidly removed and placed in ice-cold modified Ringers solution (120 mM sodium chloride, 25 mM sodium bicarbonate, 4.7 mM potassium chloride, 1.25 mM calcium chloride, 1.20 mM magnesium sulfate and 5.6 mM glucose). The longitudinal muscle layer was separated from the circular muscle by blunt dissection and cut into strips of 10×20 mm. Double-folded strips were vertically suspended between two hooks in 10 mL tissue baths with a mechanical preload of 1 g. The upper hook was connected to an […] force transducer, and its displacement was recorded on a Grass polygraph. The tissue baths contained modified Ringers solution at 37° C. and were continuously gassed with 95% oxygen/5% carbon dioxide in order to maintain the pH at 7.5.
After a stabilization period of at least 60 minutes, a contractility dose-response series was performed by adding increasing final concentrations of methacholine (10^-7 M, 10^-6 M and 10^-5 M) in volumes of 100 μL. The bath solutions were replaced at least three times between doses.
After the methacholine dose-response series was completed, a test compound dose response curve was initiated by the same procedure used for the methacholine dose-response series, with at least five concentrations of test compound within the range of 10^-10 M to 10^-4 M. The tissues were washed repeatedly between doses, and the studies were completed by recording the contractile response to 10^-5 M methacholine to ascertain integrity of the muscle preparation. Contractile responses were expressed as percent of maximal contraction. The concentration of test compound which produces half of the maximal contraction (ED50 value) and the negative logarithm of the ED50 value (PED50) were estimated from the dose-response curves.

SMILES | MIC [1] [µg/mL] | MIC [2] [µg/mL] | MIC [3] [µg/mL] | MIC [4] [µg/mL] | MIC [5] [µg/mL] | MIC [6] [µg/mL] | MIC [8] [µg/mL] | MIC [9] [µg/mL] | MIC [10] [µg/mL] | MIC [11] [µg/mL] | MIC [12] [µg/mL] | MIC [13] [µg/mL] | MIC [14] [µg/mL] | MIC [15] [µg/mL] | MIC [16] [µg/mL] | MIC [17] [µg/mL] | MIC [18] [µg/mL] | MIC [19] [µg/mL] | MIC [20] [µg/mL] | MIC [21] [µg/mL] | other results
CC[C@H]1OC(=O)[C@H](C)[C@@H](O[C@H]2C[C@@](C)(OC)[C@@H](O)[C@H](C)O2)[C@H](C)[C@@H](O[C@@H]2O[C@H](C)C[C@H](N(C)C)[C@H]2O)[C@](C)(O)C[C@@H](C)C(=O)[C@H](C)[C@@H](O)[C@]1(C)O [Erythromycin] | 100 (≈ 136 µM) | 6.2 (≈ 8.45 µM) | > 100 | 0.2 (≈ 0.273 µM) | 25 (≈ 34.1 µM) | 0.05 (≈ 0.0681 µM) | 1.56 (≈ 2.13 µM) | 0.02 (≈ 0.0273 µM) | 50 (≈ 68.1 µM) | 0.2 (≈ 0.273 µM) | 0.1 (≈ 0.136 µM) | 3.1 (≈ 4.22 µM) | > 100 | 50 (≈ 68.1 µM) | > 100 | 50 (≈ 68.1 µM) | > 100 | 0.2 (≈ 0.273 µM) | 100 (≈ 136 µM) | > 100 | MIC [7]: 0.1 µg/mL (≈ 0.136 µM); MIC [22]: > 100 µg/mL; MIC [23]: 0.02 µg/mL (≈ 0.0273 µM); MIC [24]: 6.2 µg/mL (≈ 8.45 µM); MIC [25]: 0.05 µg/mL (≈ 0.0681 µM); MIC [26]: 50 µg/mL (≈ 68.1 µM); MIC [27]: > 100 µg/mL; MIC [28]: 0.2 µg/mL (≈ 0.273 µM); MIC [29]: 0.05 µg/mL (≈ 0.0681 µM); MIC [30]: 100 µg/mL (≈ 136 µM); MIC [31]: 50 µg/mL (≈ 68.1 µM); MIC [32]: 0.2 µg/mL (≈ 0.273 µM)
CC[C@H]1OC(=O)[C@H](C)[C@@H](O[C@H]2C[C@@](C)(OC)C[C@H](C)O2)[C@H](C)[C@@H](O[C@@H]2O[C@H](C)C[C@H](N(C)CC)[C@H]2O)[C@@]2(C)CC(C)=C(O2)[C@H](C)[C@@H](O)[C@H]1C [Example 7, 8,9-anhydro-4"-deoxy-3'-N-desmethyl-3'-N-ethylerythromycin B-6,9-hemiketal] | > 100 | 50 (≈ 71.6 µM) | > 100 | > 100 | > 100 | 50 (≈ 71.6 µM) | 100 (≈ 143 µM) | 50 (≈ 71.6 µM) | > 100 | 100 (≈ 143 µM) | 100 (≈ 143 µM) | > 100 | > 100 | > 100 | > 100 | > 100 | > 100 | > 100 | > 100 | > 100 | Endpoint (pED50) could not be obtained, potency in words ([33]; footnote a of Table 2): extremely high potency; Relative Potency [33]: > 8000; MIC [22]: > 100 µg/mL; MIC [23]: 12.5 µg/mL (≈ 17.9 µM); MIC [24]: > 100 µg/mL; MIC [25]: 50 µg/mL (≈ 71.6 µM); MIC [26]: > 100 µg/mL; MIC [27]: > 100 µg/mL; MIC [28]: 100 µg/mL (≈ 143 µM); MIC [29]: 50 µg/mL (≈ 71.6 µM); MIC [30]: > 100 µg/mL; MIC [31]: > 100 µg/mL; MIC [32]: 100 µg/mL (≈ 143 µM)
CC[C@H]1OC(=O)[C@H](C)[C@@H](O[C@H]2C[C@@](C)(OC)C[C@H](C)O2)[C@H](C)[C@@H](O[C@@H]2O[C@H](C)C[C@H](N(C)CC)[C@H]2O)[C@@]2(C)C[C@@H](C)C(O2)[C@H](C)[C@@H](O)[C@]1(C)O [Example 15, 9-deoxo-3'-N-desmethyl-4",6-dideoxy-6,9-epoxy-3'-N-ethylerythromycin A] | > 100 | 50 (≈ 69.8 µM) | > 100 | > 100 | > 100 | 6.2 (≈ 8.66 µM) | > 100 | 6.2 (≈ 8.66 µM) | > 100 | 100 (≈ 140 µM) | 100 (≈ 140 µM) | > 100 | > 100 | > 100 | > 100 | > 100 | > 100 | > 100 | > 100 | > 100 | EC50 [33]: 23.4 nM; Relative Potency [33]: 60; MIC [7]: 25 µg/mL (≈ 34.9 µM); MIC [22]: > 100 µg/mL; MIC [23]: 25 µg/mL (≈ 34.9 µM); MIC [24]: > 100 µg/mL; MIC [25]: 25 µg/mL (≈ 34.9 µM); MIC [26]: > 100 µg/mL; MIC [27]: > 100 µg/mL; MIC [28]: > 100 µg/mL; MIC [29]: 50 µg/mL (≈ 69.8 µM); MIC [30]: > 100 µg/mL; MIC [31]: > 100 µg/mL; MIC [32]: 100 µg/mL (≈ 140 µM)
CC[C@H]1OC(=O)[C@H](C)[C@@H](O[C@H]2C[C@@](C)(OC)C[C@H](C)O2)[C@H](C)[C@@H](O[C@@H]2O[C@H](C)C[C@H](N(C)CC)[C@H]2O)[C@@]2(C)C[C@H](C)C(O2)[C@H](C)[C@@H](O)[C@]1(C)O [Example 11, 9-deoxo-3'-N-desmethyl-4",6-dideoxy-8-epi-3'-N-ethyl-6,9-epoxyerythromycin A] | > 100 | 50 (≈ 69.8 µM) | > 100 | > 100 | > 100 | 6.2 (≈ 8.66 µM) | 100 (≈ 140 µM) | 50 (≈ 69.8 µM) | > 100 | 100 (≈ 140 µM) | > 100 | > 100 | > 100 | > 100 | > 100 | > 100 | > 100 | > 100 | > 100 | 100 (≈ 140 µM) | EC50 [33]: 2.88 nM; Relative Potency [33]: 490; MIC [7]: 25 µg/mL (≈ 34.9 µM); MIC [22]: > 100 µg/mL; MIC [23]: 25 µg/mL (≈ 34.9 µM); MIC [24]: > 100 µg/mL; MIC [25]: 25 µg/mL (≈ 34.9 µM); MIC [26]: > 100 µg/mL; MIC [27]: > 100 µg/mL; MIC [28]: 100 µg/mL (≈ 140 µM); MIC [29]: 50 µg/mL (≈ 69.8 µM); MIC [30]: > 100 µg/mL; MIC [31]: > 100 µg/mL; MIC [32]: > 100 µg/mL
